Measured values reported in patent US20240254508A1, “Multi-Genome Editor Construct and Uses Thereof” (Colossal Biosciences Inc., priority 2023, published 2024).

Legend:
[1] = tested on: Super Editor incorporated HEK293T cells; test: Editing enzyme induction in Super Editor incorporated HEK293T cells (fluorescent imaging / FACS); assay type: cell-based; conditions: 1/5/10 μg/mL doxycycline, 30/120/300 μg/mL cumate, 10/40/100 μM TMP, 0.25/1.25/6.25 μM Shield 1, 24-72 hours after treatment
Experimental: FIGS. 3A-3D show fluorescence-activated cell sorting (FACS) of individual editor induction by super editor integrated HEK293T cells. FACS analysis was done for doxycycline induced Cas9 expression (FIG. 3A), cumate induced ABE expression (FIG. 3B), trimethoprim induced CBE expression (FIG. 3C), and shield 1 induced CGBE expression (FIG. 3D). Cells were fixed 72 hours after treatment for FACS quantification. Bar graphs plotting the induction ratios of each dose curve are provided for each different genome editor enzyme induction (FIGS. 3A-3D).
Incorporation of Super Editor in HEK293T cells: 300,000 HEK293T cells were transfected by 4 μg of Super Editor plasmid and 3 μg PiggyBac transposase plasmid using 10 μL of Lipofectamine 2000 according to the manufacturer's protocol in a 6-well plate format. 2 μg/mL doxycycline was supplemented to the cells 48 hours in advance. The transfected cells were enriched twice by Fluorescence-activated cell sorting (FACS) gated with doxycycline induced TagRFP657 (far red) fluorescent signals 1 week and 3 weeks after transfection. The 1st enrichment selected the top 0.2% (10,000 cells) of the TagRFP657+ population. The 2nd enrichment selected the top 5% (374,000 cells) of the TagRFP657+ population.
Doxycycline induced Cas9, reported by TagRFP657 (far red); cumate induced ABE, reported by TagBFP (blue); trimethoprim induced CBE reported by, eGFP (green); Shield 1 induced CGBE, reported by mCherry (red). Cells were analyzed by fluorescent imaging or FACS 24-72 hours after treatment. FACS analysis was performed on 4% PFA fixed samples (FIGS. 3A-3D). Inducers were refreshed everyday with new media.

HEK293T cells = test: Transient induction of single module plasmids in HEK293T cells; assay type: cell-based; conditions: 2 μg/ml doxycycline, 120 μg/ml cumate, 10 μM TMP, 6.25 μM shield 1
Experimental: HEK293T cells were transfected with the single module plasmids comprising the corresponding regulatory element. The HEK293T cells were treated with the corresponding inducers to generate expression of the genome editing enzyme along with the fluorescent marker accompanying each genome editing enzyme. HEK293T cells were transfected with a doxycycline inducible Cas9 editing enzyme, a cumate inducible ABE, a trimethoprim (TMP) inducible CBE, and a shield 1 inducible CGBE.

| SMILES | induction of editing enzyme expression, reported by fluorescent protein [1] | expression of genome editing enzyme and fluorescent marker after inducer treatment (HEK293T cells) |
| --- | --- | --- |
| COc1cc(Cc2cnc(N)nc2N)cc(OC)c1OC [trimethoprim] | induced CBE | CBE and eGFP were expressed |
| CC(C)c1ccc(C(=O)O)cc1 [cumate] | induced ABE | ABE and BFP were expressed |
| CC[C@H](C(=O)N1CCCC[C@H]1C(=O)O[C@H](CCc1ccc(OC)c(OC)c1)c1cccc(OCCN2CCOCC2)c1)c1cc(OC)c(OC)c(OC)c1 [Shield 1] | induced CGBE | CGBE and mCherry were expressed |
